Measured values reported in patent US20210254138A1, “SIALIC ACID TRANSPORTER PROTEINS AS BIOMARKERS AND DRUG TARGETS” (Quadram Institute Bioscience, priority 2018, published 2021).

Molecular target: T1, RUMGNA_02695 (RgNanOx, oxidoreductase) (Mediterraneibacter gnavus, UniProt A7B558)
T1 construct: the full length RgNanA and full length RUMGNA_02695 were amplified from R. gnavus ATCC 29149 gDNA; His6 (pHISTEV vector) (N); made in house; host or cells: E. coli BL21
Assay: RUMGNA_02695 enzymatic activity assay
Format: biochemical, R. gnavus ATCC 29149
Experimental: To assay RUMGNA_02695 activity against 2,7-anhydro-Neu5Ac, the purified recombinant protein was incubated in 100 μl reactions at 37° C. overnight with 1 mM 2,7-anhydro-Neu5Ac, 50 mM sodium phosphate buffer pH 7.0 and 500 μM NADH, NAD, FAD or no cofactor. The reactions were dried using a Concentrator Plus (Eppendorf) for 1 h. Samples were then resuspended in 50 μl of water and 50 μl of reaction buffer (1.74 mg of 1,2-Diamino-4,5-methylenedioxybenzene dihydrochloride (Carbosynth, UK), 324.6 μl MilliQ water, 88.6 μl glacial acetic acid, 58.2 μl of β-Mercaptoethanol and 79.3 μl of sodium hydrosulphite) and incubated for 2 h at 55° C. in the dark. The samples were then centrifuged for 1 min and filtered using a 0.45 μm filter into a glass HPLC vial and directly analysed by HPLC.
DMB-labelled samples were analysed by injecting 10 μl onto a Luna 5 μm C-18(2) LC column 250×4.6 mm (Phenomenex) at 1 ml/min. Mobile phases methanol/acetonitrile/water were used for separation of fluorescently labelled sialic acids. The settings of the fluorescence detector were 373 nm excitation and 448 nm emission. Samples were run alongside a Neu5Ac standard.
To determine the kinetic parameters of RUMGNA_02695 enzymatic reaction, a coupled reaction with lactate dehydrogenase and sialic acid aldolase was carried out as described above but with 15 μg of RgNanA and 10 μg RUMGNA_02695 in each reaction. For the kinetics assays, 1, 0.4, 0.2, 0.1, 0.04, 0.02 and 0.01 mM 2,7-anhydro-Neu5Ac was used and the initial rate of reaction determined for each concentration in triplicate before analysis was performed by fitting the data to a Michaelis-Menten using Graph Pad Prism (V 5.03).
Electrospray ionisation spray mass spectrometry (ESI-MS) analysis was performed using the Applied Biosystems 4000 Q-TRAP. The full 100 μl reaction was diluted with 500 ul of 50% Acetonitrile and 0.1% formic acid and samples analysed in negative ion mode using direct injection.

[1] = coupled reaction with excess aldolase and lactate dehydrogenase

T1 sequence (A7B558 whole entry): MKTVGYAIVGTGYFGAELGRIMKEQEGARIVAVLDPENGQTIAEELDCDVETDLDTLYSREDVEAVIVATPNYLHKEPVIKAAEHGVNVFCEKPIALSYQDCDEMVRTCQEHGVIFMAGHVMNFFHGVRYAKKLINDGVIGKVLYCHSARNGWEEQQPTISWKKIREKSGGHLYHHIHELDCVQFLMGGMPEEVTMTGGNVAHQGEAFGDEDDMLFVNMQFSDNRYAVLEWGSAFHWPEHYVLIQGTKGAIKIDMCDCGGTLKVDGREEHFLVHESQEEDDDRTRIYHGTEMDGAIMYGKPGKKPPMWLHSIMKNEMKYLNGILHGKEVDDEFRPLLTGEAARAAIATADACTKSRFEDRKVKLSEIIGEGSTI

With CC(=O)N[C@H]1C2OC(C(=O)O)(C[C@@H]1O)O[C@@H]2[C@H](O)CO (stereo partly drawn) [2,7-anhydro-Neu5Ac] the “reaction product by HPLC after DMB labelling” value (1 mM substrate, in the presence of NAD+ or NADH, not with FAD or without cofactor) was “Neu5Ac was observed as a reaction product”, the Km [1] was 74 ± 14 µM and the kcat [1] was 0.0824 ± 0.0043 s⁻¹.
